From patent US11702404B2, “GLP-1R modulating compounds” (priority 2019, dated 2023)

Experiments:
GLP-1R = GLP-1R (Homo sapiens, UniProt P43220); assay: GLP-1R activation: cAMP increase in CHO cells stably expressing GLP-1R; format: cell-based; settings: cAMP increase, CHO cells stably expressing GLP-1R, 10 point dose response, 30 minutes incubation; read-out: EC50
[1] = Microsomal stability, human liver microsomes (predicted hepatic clearance); settings: predicted from in vitro microsomal stability data

GLP-1R, sequence (P43220 24-463): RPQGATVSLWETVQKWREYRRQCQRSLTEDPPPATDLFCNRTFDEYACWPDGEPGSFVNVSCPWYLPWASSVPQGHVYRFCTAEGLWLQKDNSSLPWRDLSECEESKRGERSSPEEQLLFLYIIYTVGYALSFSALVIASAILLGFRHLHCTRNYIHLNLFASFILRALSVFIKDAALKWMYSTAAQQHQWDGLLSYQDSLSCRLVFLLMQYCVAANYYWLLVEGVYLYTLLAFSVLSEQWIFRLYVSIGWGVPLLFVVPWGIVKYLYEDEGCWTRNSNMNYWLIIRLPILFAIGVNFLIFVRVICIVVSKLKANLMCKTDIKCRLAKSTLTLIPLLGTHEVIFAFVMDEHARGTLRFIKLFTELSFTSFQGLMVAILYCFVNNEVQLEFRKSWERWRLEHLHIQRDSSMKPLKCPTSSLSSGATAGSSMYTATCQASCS

Compound	EC50 (GLP-1R) [nM]	Predicted Hepatic Clearance (Pred. Cl.) [1] [mL/min/kg]
COCCn1c(Cc2ccc(-c3cccc(OCc4ccc(C#N)cc4F)n3)c(N)c2)nc2ccc(C(=O)O)cc21 [Example 259, 2-(3-amino-4-(6-((4-cyano-2-fluorobenzyl)oxy)pyridin-2-yl)benzyl)-1-(2-methoxyethyl)-1H-benzo[d]imidazole-6-carboxylic acid]	66.9	3.3
COCCn1c(Cc2ccc(-c3cccc(OCc4ccc(C#N)cc4F)n3)cc2-c2cc[nH]n2)nc2ccc(C(=O)O)cc21 [Example 260, 2-(4-(6-((4-cyano-2-fluorobenzyl)oxy)pyridin-2-yl)-2-(1H-pyrazol-3-yl)benzyl)-1-(2-methoxyethyl)-1H-benzo[d]imidazole-6-carboxylic acid]	113	10.8
COCCn1c(Cc2ccc(-c3cccc(OCc4ccc(C#N)cc4F)n3)c(Br)c2)nc2ccc(C(=O)O)cc21 [Example 261, 2-(3-bromo-4-(6-((4-cyano-2-fluorobenzyl)oxy)pyridin-2-yl)benzyl)-1-(2-methoxyethyl)-1H-benzo[d]imidazole-6-carboxylic acid]	184	8
COCCn1c(Cc2ccc(-c3cccc(OCc4cc(F)c(C#N)cc4F)n3)cc2F)nc2ccc(C(=O)O)cc21 [Example 262, 2-(4-(6-((4-cyano-2,5-difluorobenzyl)oxy)pyridin-2-yl)-2-fluorobenzyl)-1-(2-methoxyethyl)-1H-benzo[d]imidazole-6-carboxylic acid]	28.6	<1.83
CC1(C)CC(Cn2c(Cc3ccc(-c4cccc(OCc5ccc(C#N)cc5F)n4)cc3F)nc3ccc(C(=O)O)cc32)O1 (stereo not drawn) [Example 263, 2-(4-(6-((4-cyano-2-fluorobenzyl)oxy)pyridin-2-yl)-2-fluorobenzyl)-1-((4,4-dimethyloxetan-2-yl)methyl)-1H-benzo[d]imidazole-6-carboxylic acid]	91.7	7
CC1(C)COC1Cn1c(Cc2ccc(-c3cccc(OCc4ccc(C#N)cc4F)n3)cc2F)nc2ccc(C(=O)O)cc21 (stereo not drawn) [Example 264, 2-(4-(6-((4-cyano-2-fluorobenzyl)oxy)pyridin-2-yl)-2-fluorobenzyl)-1-((3,3-dimethyloxetan-2-yl)methyl)-1H-benzo[d]imidazole-6-carboxylic acid]	26.2	4
COCCn1c(Cc2ccc(-c3cccc(OCc4ccc(C5(C#N)CC5)cc4)n3)cc2F)nc2ccc(C(=O)O)cc21 [Example 266, 2-(4-(6-((4-(1-cyanocyclopropyl)benzyl)oxy)pyridin-2-yl)-2-fluorobenzyl)-1-(2-methoxyethyl)-1H-benzo[d]imidazole-6-carboxylic acid]	51.4	6.17
COCCn1c(Cc2ccc(-c3cccc(OCc4ccc(Cl)cc4OCC(F)(F)F)n3)cc2F)nc2ccc(C(=O)O)cc21 [Example 267, 2-(4-(6-((4-chloro-2-(2,2,2-trifluoroethoxy)benzyl)oxy)pyridin-2-yl)-2-fluorobenzyl)-1-(2-methoxyethyl)-1H-benzo[d]imidazole-6-carboxylic acid]	172	4.58
N#CCC1(Cn2c(Cc3cc(F)c(-c4ccnc(OCc5ccc(C#N)cc5F)n4)cc3F)nc3c(F)cc(C(=O)O)cc32)CC1 [Example 268, 2-(4-(2-((4-cyano-2-fluorobenzyl)oxy)pyrimidin-4-yl)-2,5-difluorobenzyl)-1-((1-(cyanomethyl)cyclopropyl)methyl)-4-fluoro-1H-benzo[d]imidazole-6-carboxylic acid]	15.7	3.67
N#Cc1ccc(COc2cccc(-c3cc(F)c(Cc4nc5ccc(C(=O)O)cc5n4Cc4ncccn4)cc3F)n2)c(F)c1 [Example 269, 2-(4-(6-((4-cyano-2-fluorobenzyl)oxy)pyridin-2-yl)-2,5-difluorobenzyl)-1-(pyrimidin-2-ylmethyl)-1H-benzo[d]imidazole-6-carboxylic acid]	51.7	5.83
N#Cc1ccc(COc2cccc(-c3ccc(Cc4nc5ccc(C(=O)O)cc5n4CC4(c5ccncc5)CC4)c(F)c3)n2)c(F)c1 [Example 275, 2-(4-(6-((4-cyano-2-fluorobenzyl)oxy)pyridin-2-yl)-2-fluorobenzyl)-1-((1-(pyridin-4-yl)cyclopropyl)methyl)-1H-benzo[d]imidazole-6-carboxylic acid]	5.51	12.2
CC(C)(O)[C@H](F)Cn1c(Cc2ccc(-c3cccc(OCc4ccc(C#N)cc4F)n3)cc2F)nc2ccc(C(=O)O)cc21 [Example 278, (R)-2-(4-(6-((4-cyano-2-fluorobenzyl)oxy)pyridin-2-yl)-2-fluorobenzyl)-1-(2-fluoro-3-hydroxy-3-methylbutyl)-1H-benzo[d]imidazole-6-carboxylic acid]	1640	3
CC(C)(C#N)Cn1c(Cc2ccc(-c3cccc(OCc4ccc(C#N)cc4F)n3)c(F)c2)nc2ccc(C(=O)O)cc21 [Example 279, 2-(4-(6-((4-cyano-2-fluorobenzyl)oxy)pyridin-2-yl)-3-fluorobenzyl)-1-(2-cyano-2-methylpropyl)-1H-benzo[d]imidazole-6-carboxylic acid]	3.07	8.3
N#CCC1(Cn2c(Cc3ccc(-c4ccnc(OCc5ccc(C#N)cc5F)n4)c(F)c3)nc3ccc(C(=O)O)cc32)CC1 [Example 281, 2-(4-(2-((4-cyano-2-fluorobenzyl)oxy)pyrimidin-4-yl)-3-fluorobenzyl)-1-((1-(cyanomethyl)cyclopropyl)methyl)-1H-benzo[d]imidazole-6-carboxylic acid]	2.3	6.7
N#Cc1ccc(COc2cccc(-c3ccc(Cc4nc5ccc(C(=O)O)cc5n4CC4(n5ccnn5)CC4)c(F)c3)n2)c(F)c1 [Example 284, 1-((1-(1H-1,2,3-triazol-1-yl)cyclopropyl)methyl)-2-(4-(6-((4-cyano-2-fluorobenzyl)oxy)pyridin-2-yl)-2-fluorobenzyl)-1H-benzo[d]imidazole-6-carboxylic acid]	2.87	<1.83
COCCn1c(Cc2ccc(-c3cccc(OCc4ccc(C#N)cc4F)n3)cc2F)nc2c(F)cc(C(=O)O)cc21 [Example 285, 2-(4-(6-((4-cyano-2-fluorobenzyl)oxy)pyridin-2-yl)-2-fluorobenzyl)-4-fluoro-1-(2-methoxyethyl)-1H-benzo[d]imidazole-6-carboxylic acid]	2.19	<1.83

These reach a lower EC50 (GLP-1R). Values come first.

EC50 (GLP-1R) [nM]	Predicted Hepatic Clearance (Pred. Cl.) [1] [mL/min/kg]	Compound
1.43	5.83	COCCn1c(Cc2ccc(-c3cccc(OCc4ccc(C#N)cc4F)n3)cc2C#CC2CC2)nc2ccc(C(=O)O)cc21 [Example 257, 2-(4-(6-((4-cyano-2-fluorobenzyl)oxy)pyridin-2-yl)-2-(cyclopropylethynyl)benzyl)-1-(2-methoxyethyl)-1H-benzo[d]imidazole-6-carboxylic acid]
2.08	5.67	COCCn1c(Cc2ccc(-c3cccc(OCc4cccc5c4oc4ccccc45)n3)cc2F)nc2ccc(C(=O)O)cc21 [Example 265, 2-(4-(6-(dibenzo[b,d]furan-4-ylmethoxy)pyridin-2-yl)-2-fluorobenzyl)-1-(2-methoxyethyl)-1H-benzo[d]imidazole-6-carboxylic acid]
1.82	4.5	N#Cc1ccc(COc2cccc(-c3cc(F)c(Cc4nc5ccc(C(=O)O)cc5n4CC4(F)COC4)cc3F)n2)c(F)c1 [Example 270, 2-(4-(6-((4-cyano-2-fluorobenzyl)oxy)pyridin-2-yl)-2,5-difluorobenzyl)-1-((3-fluorooxetan-3-yl)methyl)-1H-benzo[d]imidazole-6-carboxylic acid]
0.52	7	N#CCC1(Cn2c(Cc3cc(F)c(-c4cccc(OCc5ccc(C#N)cc5F)n4)cc3F)nc3ccc(C(=O)O)nc32)CC1 [Example 273, 2-(4-(6-((4-cyano-2-fluorobenzyl)oxy)pyridin-2-yl)-2,5-difluorobenzyl)-3-((1-(cyanomethyl)cyclopropyl)methyl)-3H-imidazo[4,5-b]pyridine-5-carboxylic acid]
0.23	8	N#Cc1ccc(COc2cccc(-c3cc(F)c(Cc4nc5ccc(C(=O)O)cc5n4CC4(n5cncn5)CC4)cc3F)n2)c(F)c1 [Example 274, 1-((1-(1H-1,2,4-triazol-1-yl)cyclopropyl)methyl)-2-(4-(6-((4-cyano-2-fluorobenzyl)oxy)pyridin-2-yl)-2,5-difluorobenzyl)-1H-benzo[d]imidazole-6-carboxylic acid]
0.23	6.42	N#Cc1ccc(COc2cccc(-c3ccc(Cc4nc5c(F)cc(C(=O)O)cc5n4CC4(CF)CC4)cc3F)n2)c(F)c1 [Example 276, 2-(4-(6-((4-cyano-2-fluorobenzyl)oxy)pyridin-2-yl)-3-fluorobenzyl)-4-fluoro-1-((1-(fluoromethyl)cyclopropyl)methyl)-1H-benzo[d]imidazole-6-carboxylic acid]
1.57	7.17	N#Cc1ccc(COc2cccc(-c3ccc(Cc4nc5ccc(C(=O)O)nc5n4CC4(CF)CC4)cc3F)n2)c(F)c1 [Example 277, 2-(4-(6-((4-cyano-2-fluorobenzyl)oxy)pyridin-2-yl)-3-fluorobenzyl)-3-((1-(fluoromethyl)cyclopropyl)methyl)-3H-imidazo[4,5-b]pyridine-5-carboxylic acid]
0.62	4	COCCn1c(Cc2cc(F)c(-c3ccnc(OCc4ccc(C#N)cc4F)n3)cc2F)nc2c(F)cc(C(=O)O)cc21 [Example 280, 2-(4-(2-((4-cyano-2-fluorobenzyl)oxy)pyrimidin-4-yl)-2,5-difluorobenzyl)-4-fluoro-1-(2-methoxyethyl)-1H-benzo[d]imidazole-6-carboxylic acid]
